Measurements from patent US20260015350A1, “AZAQUINAZOLINE PAN-KRAS INHIBITORS” (Mirati Therapeutics, Inc., priority 2022, published 2026).

Assays:
[1] = tested on: KRas-mediated phosphorylation of ERK in H460 cells; assay: Inhibition of KRas-mediated phosphorylation of ERK (Cisbio HTRF pERK), H460 cells; type: cell-based; conditions: Homo sapiens; for inhibition at 0.1 µM: NCI-H460, 3 h, single point, 100 nM compound, 3 hrs; for IC50: NCI-H460, HTRF pERK
Method in brief: (§1)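 Using 6,000 cells per well, compounds are applied for 3 hrs and cells then lysed at 4° C with shaking for 40 mins. Phospho-ERK is measured by HTRF after 2 hrs of lysate incubation with the d2/Cryptate antibody mixture.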

[2] = tested on: KRas-mediated phosphorylation of ERK in A549 cells; assay: Inhibition of KRas-mediated phosphorylation of ERK (Cisbio HTRF pERK), A549 cells; type: cell-based; conditions: Homo sapiens; for inhibition at 0.1 µM: A549, 3 h, single point, 100 nM compound, 3 hrs; for IC50: HTRF pERK
Method in brief: (§2)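 Compound treatment lasts 3 hrs on 6,000 seeded cells, testing 10 doses from a 10 uM top concentration in 3-fold decrements at 0.8% final DMSO. Trametinib at 0.2 uM defines the Min signal. Detection is HTRF on cold-lysed cell extracts.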

[3] = biological target: T1, KRas^G12V (Homo sapiens, UniProt P01116, G12V); assay: KRas binding assay (TR-FRET tracer displacement), KRas G12V
T1 construct: Biotinylated KRas (corresponding to amino acids 1-169, produced at Accelegan Inc.); biotin (biotinylated); purchased Accelegan Inc
T1 sequence (P01116 1-169 isoform P01116-2 G12V): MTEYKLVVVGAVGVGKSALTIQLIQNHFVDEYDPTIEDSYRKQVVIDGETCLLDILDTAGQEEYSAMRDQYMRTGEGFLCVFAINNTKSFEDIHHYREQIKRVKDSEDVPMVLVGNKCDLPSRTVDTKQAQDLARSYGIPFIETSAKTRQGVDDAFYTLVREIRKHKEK

[4] = tested on: KRas-mediated phosphorylation of ERK in PSN1 cells; assay: Inhibition of KRas-mediated phosphorylation of ERK (Cisbio HTRF pERK), PSN1 cells; type: cell-based; conditions: Homo sapiens
Method in brief: (§3)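 Phospho-ERK is quantified by HTRF with the Advanced pERK kit. Cells go in at 6,000/well in RPMI plus 10% FBS overnight at 37° C. under 5% CO2, with a 4-hour covered room-temperature incubation ahead of the read.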

[5] = tested on: KRas-mediated phosphorylation of ERK in AsPC-1 cells; assay: Inhibition of KRas-mediated phosphorylation of ERK (Cisbio HTRF pERK), AsPC-1 cells; type: cell-based; conditions: Homo sapiens; for inhibition at 0.1 µM: ASPC1, 3 h, single point, 100 nM compound, 3 hrs, AsPC-1 cells; for IC50: ASPC1, AsPC-1 cells, HTRF pERK
Method in brief: as §1

[6] = tested on: KRas-mediated phosphorylation of ERK in H727 cells; assay: Inhibition of KRas-mediated phosphorylation of ERK (Cisbio HTRF pERK), H727 cells; type: cell-based; conditions: Homo sapiens; for inhibition at 0.1 µM: NCI-H727, 3 h, single point, 100 nM compound, 3 hrs, H727 cells; for IC50: NCI-H727, H727 cells, HTRF pERK
Method in brief: as §1

[7] = biological target: T2, KRas^G12D (Homo sapiens, UniProt P01116, G12D); assay: KRas binding assay (TR-FRET tracer displacement), KRas G12D
T2 construct: Biotinylated KRas (corresponding to amino acids 1-169, produced at Accelegan Inc.); biotin (biotinylated); purchased Accelegan Inc
T2 sequence (P01116 1-169 isoform P01116-2 G12D): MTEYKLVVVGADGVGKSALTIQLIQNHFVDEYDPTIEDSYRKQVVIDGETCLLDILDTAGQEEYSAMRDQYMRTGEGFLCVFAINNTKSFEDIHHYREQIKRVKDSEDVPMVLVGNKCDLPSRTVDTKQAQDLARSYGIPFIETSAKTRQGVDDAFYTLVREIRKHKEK

[8] = tested on: KRas-mediated phosphorylation of ERK in MKN1 cells; assay: Inhibition of KRas-mediated phosphorylation of ERK (Cisbio HTRF pERK), MKN1 cells; type: cell-based; conditions: Homo sapiens, MKN-1
Method in brief: as §3

[9] = tested on: KRas-mediated phosphorylation of ERK in H358 cells; assay: Inhibition of KRas-mediated phosphorylation of ERK (Cisbio HTRF pERK), H358 cells; type: cell-based; conditions: Homo sapiens; for inhibition at 0.1 µM: NCI-H358, 3 h, single point, 100 nM compound, 3 hrs; for IC50: NCI-H358, HTRF pERK
Method in brief: as §1

[10] = tested on: KRas-mediated phosphorylation of ERK in HCT116 cells; assay: Inhibition of KRas-mediated phosphorylation of ERK (Cisbio HTRF pERK), HCT116 cells; type: cell-based; conditions: Homo sapiens; for inhibition at 0.1 µM: HCT-116, 3 h, single point, 100 nM compound, 3 hrs; for IC50: HCT-116, HTRF pERK
Method in brief: as §2

[11] = biological target: T3, KRas^G12R (Homo sapiens, UniProt P01116, G12R); assay: KRas binding assay (TR-FRET tracer displacement), KRas G12R
T3 construct: Biotinylated KRas (corresponding to amino acids 1-169, produced at Accelegan Inc.); biotin (biotinylated); purchased Accelegan Inc
T3 sequence (P01116 1-169 isoform P01116-2 G12R): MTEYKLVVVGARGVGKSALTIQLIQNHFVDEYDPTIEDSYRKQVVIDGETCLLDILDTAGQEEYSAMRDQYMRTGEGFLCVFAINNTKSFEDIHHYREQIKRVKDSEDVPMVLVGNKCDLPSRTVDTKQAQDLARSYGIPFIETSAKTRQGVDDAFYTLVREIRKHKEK

CCc1c(F)ccc2cc(O)cc(-c3ncc4c(N5CCC[C@@](C)(O)C5)nc(OC[C@@]56CCCN5[C@@H](CNS(=O)(=O)N(C)C)CC6)nc4c3F)c12 [Example 788, (R)-1-(7-(8-ethyl-7-fluoro-3-hydroxynaphthalen-1-yl)-8-fluoro-2-(((3R,7aS)-3-(((dimethylsulfamoyl)amino)methyl)tetrahydro-1H-pyrrolizin-7a(5H)-yl)methoxy)pyrido[4,3-d]pyrimidin-4-yl)-3-methylpiperidin-3-ol]
inhibition at 0.1 µM [1]: 47% | inhibition at 0.1 µM [2]: 38% | IC50 [3]: < 2 nM | IC50 [4]: 2840 nM | inhibition at 0.1 µM [5]: 45% | IC50 [5]: 73 nM | inhibition at 0.1 µM [6]: 41% | IC50 [6]: 211 nM | IC50 [7]: 2 nM | IC50 [8]: 13 nM | inhibition at 0.1 µM [9]: 75% | inhibition at 0.1 µM [10]: 33% | IC50 [11]: 4 nM

CCc1c(F)ccc2cc(O)cc(-c3ncc4c(N5CCC[C@@](C)(O)C5)nc(OC[C@]56CCCN5[C@H](CNS(=O)(=O)N(C)C)CC6)nc4c3F)c12 [Example 720, N,N-dimethyl-(((3S,7aR)-7a-(((7-(8-ethyl-7-fluoro-3-hydroxynaphthalen-1-yl)-8-fluoro-4-((R)-3-hydroxy-3-methylpiperidin-1-yl)pyrido[4,3-d]pyrimidin-2-yl)oxy)methyl)hexahydro-1H-pyrrolizin-3-yl)methyl)aminosulfonamide]
inhibition at 0.1 µM [1]: 80% | inhibition at 0.1 µM [2]: 64% | IC50 [3]: < 2 nM | IC50 [4]: 1760 nM | inhibition at 0.1 µM [5]: 70% | IC50 [5]: 19 nM | inhibition at 0.1 µM [6]: 43% | IC50 [6]: 47 nM | IC50 [7]: < 2 nM | IC50 [8]: 6 nM | inhibition at 0.1 µM [9]: 85% | inhibition at 0.1 µM [10]: 51% | IC50 [11]: < 2 nM

CCc1c(F)ccc2cc(O)cc(-c3ncc4c(N5CCC[C@@](C)(O)C5)nc(OC[C@@]56CCCN5[C@H](COCC5CCC5)CC6)nc4c3F)c12 [Example 852, (R)-1-(2-(((3S,7aS)-3-((cyclobutylmethoxy)methyl)tetrahydro-1H-pyrrolizin-7a(5H)-yl)methoxy)-7-(8-ethyl-7-fluoro-3-hydroxynaphthalen-1-yl)-8-fluoropyrido[4,3-d]pyrimidin-4-yl)-3-methylpiperidin-3-ol]
IC50 [1]: 42 nM | IC50 [2]: 68 nM | IC50 [3]: < 2 nM | IC50 [4]: 923 nM | IC50 [5]: 35 nM | IC50 [6]: 109 nM | IC50 [7]: < 2 nM | IC50 [8]: 5 nM | IC50 [9]: 12 nM | IC50 [10]: 38 nM | IC50 [11]: < 2 nM

CCc1c(F)ccc2cc(O)cc(-c3ncc4c(N5CCC[C@@](C)(O)C5)nc(OC[C@@]56CCCN5[C@H](COCC5CC5)CC6)nc4c3F)c12 [Example 870, (R)-1-(2-(((3S,7aS)-3-((cyclopropylmethoxy)methyl)tetrahydro-1H-pyrrolizin-7a(5H)-yl)methoxy)-7-(8-ethyl-7-fluoro-3-hydroxynaphthalen-1-yl)-8-fluoropyrido[4,3-d]pyrimidin-4-yl)-3-methylpiperidin-3-ol]
IC50 [1]: 25 nM | IC50 [2]: 66 nM | IC50 [3]: < 2 nM | IC50 [4]: 1300 nM | IC50 [5]: 51 nM | IC50 [6]: 98 nM | IC50 [7]: < 2 nM | IC50 [8]: 18 nM | IC50 [9]: 10 nM | IC50 [10]: 49 nM | IC50 [11]: < 2 nM

CCc1c(F)ccc2cc(O)cc(-c3ncc4c(N5CC6CCC(C5)C65OCCO5)nc(OC[C@@]56CCCN5C[C@H](F)C6)nc4c3F)c12 [Example 883, 5-ethyl-6-fluoro-4-(8-fluoro-2-(((2R,7aS)-2-fluorotetrahydro-1H-pyrrolizin-7a(5H)-yl)methoxy)-4-(3-azaspiro[bicyclo[3.2.1]octane-8,2′-[1,3]dioxolan]-3-yl)pyrido[4,3-d]pyrimidin-7-yl)naphthalen-2-ol]
IC50 [1]: 211 nM | IC50 [2]: 822 nM | IC50 [3]: 7 nM | IC50 [4]: > 10000 nM | IC50 [5]: 1170 nM | IC50 [6]: 252 nM | IC50 [7]: 53 nM | IC50 [8]: 94 nM | IC50 [9]: 95 nM | IC50 [10]: 772 nM | IC50 [11]: 12 nM
